What was measured:
[1] = target: T1, human PPARγ2 (Homo sapiens, UniProt P37231); test: PPAR Receptor Binding Assay: [3H]AD-5075 Displacement Assay for PPARγ2; settings: [3H2]AD-5075, gst-PPARγ2, ~16 h at 4° C., pH 7.2
T1 construct: The full length human cDNA for PPARγ2 and PPARδ were subcloned; made in house; host or cells: E. coli
T1 sequence (P37231 1-505): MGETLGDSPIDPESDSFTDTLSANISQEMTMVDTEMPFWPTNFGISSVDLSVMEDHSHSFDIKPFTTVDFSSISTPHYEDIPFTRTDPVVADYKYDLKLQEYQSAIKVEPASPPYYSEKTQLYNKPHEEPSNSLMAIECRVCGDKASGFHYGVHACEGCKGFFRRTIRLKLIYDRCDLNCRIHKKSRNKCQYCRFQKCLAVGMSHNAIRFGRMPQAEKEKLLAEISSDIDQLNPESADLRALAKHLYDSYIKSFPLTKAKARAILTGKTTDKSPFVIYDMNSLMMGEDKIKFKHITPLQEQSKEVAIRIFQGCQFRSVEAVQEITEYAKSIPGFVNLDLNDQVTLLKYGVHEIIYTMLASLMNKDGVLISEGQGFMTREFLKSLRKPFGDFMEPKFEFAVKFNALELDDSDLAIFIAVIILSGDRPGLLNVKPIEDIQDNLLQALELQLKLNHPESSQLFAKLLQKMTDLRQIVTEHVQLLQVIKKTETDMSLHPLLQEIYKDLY
Text: (§1) Compounds of the instant invention which are useful for the above discussed treatments can be identified and/or characterized by employing the PPARδ, and γ binding assays. The assays are useful in predicting or quantitating in vivo effects having to do with the control or modulation of glucose, free fatty acid, triglyceride, insulin or cholesterol. To evaluate IC50 or EC50, values the compounds were titrated in the appropriate assay using different concentrations of the compound to be tested. To obtain the appropriate values (%Inhibition-IC50, or %Activation-EC50), the data resulting from the assays were then analyzed by determining the best fit of a 4 parameter function to the data using the Levenberg-Marquardt non-linear fitting algorithm in Kaleidagraph (Synergy Software, Reading, Pa). The human nuclear receptor cDNA for PPARδ (hPPARδ) has been cloned from a human osteosarcoma cell cDNA library and is fully described in A. Schmidt et al., Molecular Endocrinology, 6:1634-1641 (1992), herein incorporated by reference in its entirety. See A. Elbrecht et al., Biochem. and Biophy. Res. Comm. 224:431-437 (1996) and T. Sher et al., Biochem. 32:5598-5604 (1993) for a description of the human nuclear receptor gene PPARγ, and α.
Human PPARγ2 and PPARδ, independently, were prepared as gst-fusion proteins in E. coli. […]

[2] = target: T2, human PPARδ (Homo sapiens, UniProt Q03181); test: PPAR Receptor Binding Assay: [3H2]Example 11 Displacement Assay for PPARδ; settings: [3H2]Example 11, gst-PPARδ, ~16 h at 4° C., pH 7.2
T2 construct: The full length human cDNA for PPARγ2 and PPARδ were subcloned; made in house; host or cells: E. coli
T2 sequence (Q03181 1-441): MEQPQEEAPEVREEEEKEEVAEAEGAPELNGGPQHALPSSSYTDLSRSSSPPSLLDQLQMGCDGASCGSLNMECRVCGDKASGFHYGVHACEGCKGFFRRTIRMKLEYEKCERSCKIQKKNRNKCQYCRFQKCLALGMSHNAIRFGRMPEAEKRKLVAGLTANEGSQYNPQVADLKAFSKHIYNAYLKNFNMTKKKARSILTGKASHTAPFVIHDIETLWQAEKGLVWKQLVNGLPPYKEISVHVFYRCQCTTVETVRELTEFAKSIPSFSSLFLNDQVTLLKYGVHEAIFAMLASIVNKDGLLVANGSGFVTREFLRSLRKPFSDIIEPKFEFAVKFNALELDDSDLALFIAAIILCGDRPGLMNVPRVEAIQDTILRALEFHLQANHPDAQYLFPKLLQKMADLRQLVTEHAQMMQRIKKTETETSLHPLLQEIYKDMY
Text: as §1
The hPPARδ binding assay comprises the steps of: […]

| Kd [1] [nM] | Kd [2] [nM] | SMILES |
| --- | --- | --- |
| ~1 |  | Cc1oc(-c2ccccc2)nc1C(O)COc1ccc(CC2SC(=O)NC2=O)cc1 (centres unmarked) [AD-5075] |
|  | ~1 | CCCc1c(OCCc2cc3c4c(ccc3o2)C(C(=O)O)CCC4)ccc2c(-c3ccccc3)noc12 (centres unmarked) [Example 11, 2-(2-(3-phenyl-7-propylbenz[4,5]isoxazol-6-yloxy)ethyl)-4,5,6,7-tetrahydronaphtho[2,1-b]furan-7-carboxylic acid] |
